Laboratory results published in article PMC5296733, “Functional Coupling of Human Microphysiology Systems: Intestine, Liver, Kidney Proximal Tubule, Blood-Brain Barrier and Skeletal Muscle” (Scientific Reports, 2017).
Where two headings read alike, the source gives them in different places.

Legend:
[1] = system: static SQL-SAL liver model; assay: Static 4-cell SQL-SAL liver in 96-well microplates (vitamin D3); assay type: in vitro ADME, human; conditions: vitamin D3 experiment; 96-well 4-cell liver module, 72 h, media pooled
Procedure: Media without dexamethasone was used to avoid downstream toxicity to the human neurons in the NVU. […]
The intestinal/liver-conditioned media efflux was collected and samples were tested by MS or transported on dry ice for testing in the kidney module, or the BBB/NVU module.
Dexamethasone, normally used to maintain hepatocyte differentiation, was removed from the liver media for functional coupling to avoid downstream toxicity to the human neurons in the NVU. […] Briefly, cryopreserved human hepatocytes were seeded into collagen type 1 coated 96-well plates at 26,000 hepatocytes/well and allowed to attach overnight in hepatocyte plating media (HPM). The HPM was decanted and 1.25x10^5 Ea.Hy.926 endothelial cells and 8 X10^4 differentiated U937 immune cells in MEM media supplemented with 10% FBS and L-Glutamine were added. After 2 h the media was decanted and 40 µL of a slurry of 1.5 mg/mL gelling collagen type 1 in Williams E media with 4 X 10^4 LX-2 stellate cells was added.

[2] = system: differentiated human jejunal enteroids
Text: (§1) Mass spectrometry was used to measure the concentration of compound and metabolites in the media following exposure in each MPS organ module.
(§2) Human jejunal enteroid cultures were isolated from two separate donors as described[59] and maintained in culture as spherical enteroids in Matrigel (Becton Dickinson, Franklin Lakes, NJ) until dissociated and plated as monolayer cultures on collagen IV coated polyethylene terephthalate (PET) Transwell® membrane inserts (Corning, Inc., Corning, NY) (Fig. 1A)[55][59][60][61]. The apical chamber received 100 μl of a 5 × 10^6/mL of the suspended cells in proliferation media. The basolateral chamber received 600 μl of proliferation media. […] Jejunal barrier monolayer with intact tight junctions were established by TEER testing and the restricted diffusion of 4 kD FITC-dextran polymers over the 24 h period (Supplemental Information Supplemental Table S8).
(§3) TMA was prepared at a concentration 3 mM by dissolving the neat compound directly into intestinal apical media. […] The dried residue was solubilized in apical media and mixed by sonication in a water bath for 30 s.
(§4) All treatments were conducted in duplicate modules in each laboratory. […] The apical and basolateral media were collected in glass vials and frozen at −80 °C for MS analysis and transported to UPitt for testing in the SQL-SAL module.

[3] = system: differentiated human jejunal enteroids; assay: Intestine module: jejunal enteroid Transwell transport and metabolism; conditions: for Concentration in intestine apical media / Concentration in intestine basolateral media: 100 μM vitamin D3 micelles apical, 24 h; for Concentration in micelle preparation: synthetic micelles containing 100 μM vitamin D3
Text: as §1, §2, §3, §4

[4] = system: proximal tubule kidney (PTK) module; assay: Proximal tubule kidney (PTK) module, vitamin D3 metabolites
Procedure: Briefly, a single 100 μm diameter lumen was pre-cast in gelling collagen inside the microfluidic device and then seeded with passage 5 kidney PTEC to 100% confluence according to established methods[52]. The kidney proximal tubule modules were then perfused (30 μL/h) for 8 days with 100% kidney proximal tubule media prior to perfusion with mixed media solutions.
All media samples were stored in amber glass vials at −80 °C until LC-MS/MS analysis.

[5] = system: blood-brain barrier/neurovascular unit (BBB/NVU); assay: BBB/NVU module penetration; conditions: for Concentration in brain neuronal efflux / Concentration in brain vascular efflux: vitamin D3 experiment, 24 h; for Penetration through blood-brain barrier (MPS): BBB/NVU module, liver-conditioned media, TMAO 12 h, others 24 h
[6] = system: Kidney MPS Organ Module (PTK); assay: Vitamin D binding protein as carrier in PTK module; conditions: 1 μM 25-(OH) VD3
[7] = system: Liver MPS Organ Module; assay: Effect of vitamin D binding protein on recovery and metabolism in liver module; assay type: in vitro ADME, human; conditions: for 25-(OH) VD3 formation as % of in vivo rate / 25-(OH) VD3 formation: 0-24 h; for 25-(OH) VD3 formation: 7 μM VitD3
Procedure: Media without dexamethasone was used to avoid downstream toxicity to the human neurons in the NVU. […] Media samples were collected after 24 h and 48 h incubations.
Samples from the treatment conditions were collected after 24-h and 48-h incubations and stored in amber glass vials at -80°C for LC-MS/MS analysis.

[8] = cited from earlier work
[9] = 0-48 h, 50% liver-conditioned, N=2

SMILES | Concentration in liver efflux media [1] [ng/mL] | Concentration in intestine apical media [3] | Concentration in intestine basolateral media [3] | Concentration in micelle preparation [3] | Concentration in kidney efflux media [4, 9] [ng/mL] | Concentration in kidney efflux media ([4]; 0-48 h, 80% liver-conditioned) [ng/mL] | Concentration in kidney efflux media ([4]; 0-120 h, 50% liver-conditioned) [ng/mL] | Concentration in kidney efflux media ([4]; 0-120 h, 80% liver-conditioned) [ng/mL] | Concentration in brain neuronal efflux [5] | Concentration in brain vascular efflux [5] [ng/mL] | other results
C=C1/C(=C\C=C2/CCC[C@]3(C)[C@@H]([C@H](C)CCCC(C)(C)O)CC[C@@H]23)C[C@@H](O)C[C@@H]1O [1α,25-(OH)2 Vitamin D3, 1α,25-(OH)2 vitamin D3] | 0.0064 | – | – | – | – | – | – | – | – | – | Concentration in micelle preparation [2]: < LOD^2 < LOD < LOD
C=C1CC[C@H](O)[C@H](O)/C1=C/C=C1\CCC[C@]2(C)[C@@H]([C@H](C)CCCC(C)(C)O)CC[C@@H]12 [4β,25-(OH)2 Vitamin D3, 4β,25-(OH)2 vitamin D3] | 0.047 | < LOD^2 < LOD < LOD | < LOD^2 < LOD < LOD | < LOD^2 < LOD < LOD | 0.0033 | 0.0064 | 0.0076 | 0.014 | LOD | 0.0081 ± 0.0029 | –
C=C1CCC(O)C/C1=C\C=C1\CCCC2(C)C1CCC2C(C)CCC(O)C(C)(C)O (centres unmarked) [24,25-(OH)2 Vitamin D3, 24,25-(OH)2 vitamin D3] | 0.25 | < LOD^2 < LOD < LOD | < LOD^2 < LOD < LOD | < LOD^2 < LOD < LOD | 0.082 | 0.12 | 0.11 | 0.16 | LOQ | 0.079 ± 0.015 | Metabolite formation in kidney efflux ([6]; 48-72 h, media + 2% FBS): 6.80 ± 1.6 pmol/day/ 10^6 Proximal Tubule Cells
C=C1CC[C@H](O)C/C1=C/C=C1\CCC[C@]2(C)[C@@H]([C@H](C)CCCC(C)(C)O)CC[C@@H]12 [25-(OH) Vitamin D3, 25-(OH) vitamin D3] | 3.0 | < LOQ^1 < LOQ < LOQ | < LOQ^1 < LOQ < LOQ | < LOQ^1 < LOQ < LOQ | 0.12 | 0.23 | 0.29 | 0.48 | 0.051 ± 0.022 ng/mL | 0.82 ± 0.15 | 25-(OH) VD3 recovery ([6]; 48-72 h, Renal Tubular Epithelial Media + 3 μM Vitamin D Binding Protein): 100%; 25-(OH) VD3 recovery ([6]; 48-72 h, Renal Tubular Epithelial Media + 2% FBS): 8%; Recovered from syringes and tubing leading up to MPS module ([6]; media + 2% FBS): 16%; 25-(OH) VD3 formation as % of in vivo rate ([7]; 3 μM DBP): 4.9 % of in vivo rate; 25-(OH) VD3 formation as % of in vivo rate ([7]; no DBP): 2.7 % of in vivo rate; 25-(OH) VD3 formation ([7]; 3 μM DBP): 12.63 pmol/day/10^6 Hepatocytes; 25-(OH) VD3 formation ([7]; no DBP): 7.00 pmol/day/10^6 Hepatocytes; Improvement of formation and recovery of the metabolite with DBP ([7]; DBP:vitamin D3 3:1 versus no DBP): 2–3 fold; 25-(OH) vitamin D3 perfused into the kidney that was unrecoverable ([4]; initial four-organ functional study, no DBP): 90%; Kidney metabolism, Clinical ([8]; Table 2, clinical): 25(OH)VD3 → 1α,25(OH)2VD3 & 24,25(OH)2VD3; Penetration through blood-brain barrier, Clinical ([8]; Table 2, clinical): VD3 & 25(OH)VD3 Penetration; Plasma 25-(OH) vitamin D3 transported by DBP ([8]; in humans): 85–90%; Penetration through blood-brain barrier (MPS) [5]: approximately 6%; Penetration through blood-brain barrier (MPS) ([5]; listed as 25(OH) VD3): 6%
